Reference: ChEMBL document CHEMBL2406975, “β-Secretase Inhibitors for the Treatment of Alzheimer's Disease and Down's Syndrome” (ACS Med Chem Lett, 2013)

Biological target: Beta-secretase 1 (Homo sapiens, UniProt P56817)
Test: Inhibition of BACE1 in human SH-SY5Y cells assessed as release of sAPPbeta after 17 hrs
Format: cell-based

Sequence of Beta-secretase 1 (P56817 whole entry): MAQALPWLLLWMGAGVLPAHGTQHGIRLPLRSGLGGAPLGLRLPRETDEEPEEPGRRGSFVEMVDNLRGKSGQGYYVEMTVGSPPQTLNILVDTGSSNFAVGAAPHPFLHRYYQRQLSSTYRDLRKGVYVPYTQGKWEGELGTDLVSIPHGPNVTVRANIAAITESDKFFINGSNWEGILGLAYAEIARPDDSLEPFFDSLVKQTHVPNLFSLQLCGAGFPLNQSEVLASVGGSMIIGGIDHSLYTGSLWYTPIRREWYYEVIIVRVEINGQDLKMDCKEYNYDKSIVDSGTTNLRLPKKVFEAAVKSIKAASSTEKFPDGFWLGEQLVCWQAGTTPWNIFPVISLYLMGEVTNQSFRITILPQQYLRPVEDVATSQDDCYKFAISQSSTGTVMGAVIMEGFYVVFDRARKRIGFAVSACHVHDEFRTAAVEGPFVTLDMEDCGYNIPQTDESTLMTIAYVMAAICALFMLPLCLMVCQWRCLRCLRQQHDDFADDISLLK

IC50 [nM] | SMILES
0.031 | CC#Cc1cncc(-c2ccc3c(c2)C2(C=C(F)C(N)=N2)[C@]2(CC[C@H](OC)CC2)C3)c1 (some centres undefined)
1.1 | CO[C@H]1CC[C@]2(CC1)Cc1ccc(-c3cncnc3)cc1C21C=C(F)C(N)=N1 (some centres undefined)
1.1 | CC#Cc1cncc(-c2ccc3c(c2)C2(C=C(F)C(N)=N2)[C@]2(CC[C@@H](OC)CC2)C3)c1 (some centres undefined)
168 | CC1(C)Cc2ccc(-c3cncnc3)cc2C12C=C(F)C(N)=N2 (centres undefined)
